Key:
Beta-xylosidase = biological target: T1, Beta-xylosidase (Thermoanaerobacterium saccharolyticum, UniProt P36906); experiment: Inhibition of Thermoanaerobacterium saccharolyticum beta-xylosidase
T1 sequence (P36906 whole entry): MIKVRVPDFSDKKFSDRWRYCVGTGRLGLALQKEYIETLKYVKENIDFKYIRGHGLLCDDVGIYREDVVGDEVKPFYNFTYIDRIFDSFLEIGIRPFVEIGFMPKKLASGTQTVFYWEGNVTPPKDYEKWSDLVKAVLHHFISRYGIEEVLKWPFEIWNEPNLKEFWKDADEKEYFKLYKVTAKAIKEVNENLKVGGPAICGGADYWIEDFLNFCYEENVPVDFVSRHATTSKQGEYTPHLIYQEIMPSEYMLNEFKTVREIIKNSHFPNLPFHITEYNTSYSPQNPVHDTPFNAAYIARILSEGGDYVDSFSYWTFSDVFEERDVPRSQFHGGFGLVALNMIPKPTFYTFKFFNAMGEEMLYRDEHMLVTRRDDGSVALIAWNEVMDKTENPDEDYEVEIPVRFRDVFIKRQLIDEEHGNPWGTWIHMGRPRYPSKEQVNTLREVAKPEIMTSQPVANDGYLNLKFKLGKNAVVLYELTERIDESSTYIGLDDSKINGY

[1] = biological target: T2, Tissue alpha-L-fucosidase (Homo sapiens, UniProt P04066); experiment: Inhibition of human liver alpha-L-fucosidase
T2 sequence (P04066 whole entry): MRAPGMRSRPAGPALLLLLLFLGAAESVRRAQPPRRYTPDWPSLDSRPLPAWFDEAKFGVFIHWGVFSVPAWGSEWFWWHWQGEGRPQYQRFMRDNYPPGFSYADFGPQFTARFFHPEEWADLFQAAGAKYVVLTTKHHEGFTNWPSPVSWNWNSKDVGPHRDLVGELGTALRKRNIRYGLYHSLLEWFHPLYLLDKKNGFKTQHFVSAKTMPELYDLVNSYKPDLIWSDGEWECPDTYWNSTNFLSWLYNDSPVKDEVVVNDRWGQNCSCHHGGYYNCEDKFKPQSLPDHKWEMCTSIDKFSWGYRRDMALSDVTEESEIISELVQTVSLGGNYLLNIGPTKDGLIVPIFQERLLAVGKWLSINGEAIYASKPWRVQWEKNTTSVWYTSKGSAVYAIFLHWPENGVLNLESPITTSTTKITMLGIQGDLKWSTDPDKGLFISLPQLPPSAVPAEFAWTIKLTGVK

Ki (Beta-xylosidase) [µM] | Ki [1] [µM] | SMILES
7.6 |  | CN(C)c1cccc2c(S(=O)(=O)NCCCCCCN3C[C@@H](O)[C@H](O)[C@@H](O)C3)cccc12
206 |  | O[C@H]1[C@H](O)CNC[C@@H]1O [DIDEOXYIMINOXYLITOL]
 | 0.5 | C[C@H]1[C@@H](O)[C@@H](O)[C@H](O)CN1CCCCCCNS(=O)(=O)c1cccc2c(N(C)C)cccc12

— ChEMBL document CHEMBL1146112, “Fluorescent glycosidase inhibiting 1,5-dideoxy-1,5-iminoalditols” (Bioorg Med Chem Lett, 2006)
